Results reported in patent publication EP2769723A1, “Compounds for use in inhibiting HIV capsid assembly” (priority 2013, dated 2014).
Like-named read-outs stand apart in the source and are kept apart here.

What was measured:
Type in all cases: cell-based
wild type NL4.3 HIV-1 = assay: Tissue culture infectivity test, TZM titration of supernatants from infected TZM cells; settings: Human immunodeficiency virus 1, TZM
Description: Hits selected in the YFP-screen were further evaluated in the tissue culture experiments with cells infected with the wild type NL4.3 HIV-1. The virus for infection was obtained from co-culture of MT4 cells. The MT4 cells co-culture was synchronized for one week and then used for the infection of fresh MT 4 cells. 48 hrs post-infection was the culture supernatant harvested, cleared by the filtration through […] filter and stored in -80 °C in 1 ml aliquots. Amount of virus was quantified by enzyme-linked immuno sorbent assay (ELISA) with antibodies against HIV-1 CA (3 ng of CA/ml) and blue cell assay (1x10^5 IU/ml), which gives 3 x 10^4 IU/ng of CA.
For compounds testing the TZM cells were seeded on 96-well plate in the density 5 x 10^3 cells per well. The culture media was aspirated approx. 16 hrs later and cells were infected by the wild type NLA.3 HIV-1 by addition of 50J..il of prepared virus stock diluted with 50 µl of complete DMEM. The compounds were added twice to ensure that there are not any preassembled viruses present at the time of their addition. Compounds were first added 8 hrs post-infection and then 24 hrs later. In both cases the old culture media were replaced by 100 µl of fresh complete DMEM prior to the compounds addition. Different compounds concentrations were tested, but the DMSO concentration never exceeded 1 % DMSO. As controls were used cells treated only with 1 % DMSO and cells treated with 0,1 µM Lopinavir (HIV-1 protease inhibitor). Supernatant was harvested 24 hrs after the second compound addition, i.e. 56 hrs post-infection. Harvested supernatants were immediately titrated on the fresh TZM cells in aim to perform the infectivity assay (TZM titration), or inactivated by addition of Triton X-100 to the final concentration 0.025 % for further ELISA analysis.
TZM titration was performed on the cells seeded day before on 96-well plate in the density 5 x 10^3 cells per well. The analysis was performed for each compound concentration at three different dilutions and in duplicates. The culture media was aspired and cells were lysed 48 hrs post-infection by addition of 100 µl of SteadyGlo luciferase substrate (Promega) diluted 1 : 1 by complete DMEM. The luminescence signal was measured on Luminoskan Ascent (Thermo Labsystems) after the transfer of 80 µl of lysate to the flat bottom white polystyrene assay plates (Costar).

in vitro = settings: human
Description: (§1) Cytotoxicity of selected hits tested in the assay with NL4.3 infected cells was determined by MTT test. TZM cells were seeded on the previous day on 96-well plate in the density 5 x 10^3 cells per well. The tested compounds were added in different concentrations, but the DMSO concentration never exceeded 1 % DMSO. As controls were used cells treated only with 1 % DMSO (non-toxic concentration) and cells treated with 5 % DMSO (toxic concentration). 20 µl of the CellTiter 96 Aqueous One substrate (Promega) was added to the 100 µl of culture media 48 hrs after the compounds addition and the color development was quantified 4 hrs later by measuring the absorbance at 490 nm on Saphire reader. Compounds were consider non-cytotoxic (at given concentrations) when the measured values were higher than 80 % of the value of 1 % DMSO treated cells.

TZM cells = assay: in vitro; settings: Table 4; non-cytotoxic when values higher than 80 % of 1 % DMSO treated cells
Description: as §1

[1] = read-out: tissue culture IC50 (µM)
[2] = Table 4, non-cytotoxic when values higher than 80 % of 1 % DMSO treated cells, read-out: toxicity LC50
[3] = Table 5, MTT cytotoxicity test, read-out: CC50

| SMILES | IC50 (wild type NL4.3 HIV-1; [1]) | CC50 at 48 h (in vitro; [2]) | IC50 (wild type NL4.3 HIV-1) | CC50 at 48 h (in vitro; [3]) | IC50 (wild type NL4.3 HIV-1; Table 4, cells infected with wild type NL4.3 HIV-1, read-out: tissue culture IC50) | toxicity LC50 (µM) (TZM cells) |
| --- | --- | --- | --- | --- | --- | --- |
| OCc1ccc(Nc2nc(-c3cccnc3)nc3ccccc23)cc1 [KP-236] | ~10 µM | ~10 µM | – | – | – | – |
| O=[N+]([O-])c1ccc(F)c(Nc2nc(-c3cccnc3)nc3cc(C(F)(F)F)ccc23)c1 [OSR-178] | ~5 µM | ~11 µM | 1.5 µM | 5 µM | – | – |
| O=[N+]([O-])c1ccc(Nc2nc(-c3cccnc3)nc3ccccc23)c(I)c1 [KP-108] | ~1.5 µM | ~20 µM | – | – | – | – |
| CCOc1nc(-c2cccnc2)nc2ccccc12 [OSR-236] | – | – | – | – | 10 to 15 µM | non-toxic |
| FC(F)(F)c1cccc(Nc2nc(-c3cccnc3)nc3ccccc23)c1 [OSR-198] | > 25 µM | – | – | – | – | non-toxic |
| O=C(O)c1ccc(Nc2nc(-c3ccncc3)nc3ccccc23)cc1 [AMR-542] | > 10 µM | – | – | – | – | non-toxic |
| Oc1cc(Cl)cc(Nc2nc(-c3cccnc3)nc3ccccc23)c1 [KP-251] | ~5 µM | – | – | – | – | non-toxic |
| Cc1ccc(Nc2nc(-c3cccnc3)nc3ccccc23)cc1C(F)(F)F [KP-278] | ~10 µM | – | – | – | – | non-toxic |
| c1cncc(-c2nc(Nc3ccncn3)c3ccccc3n2)c1 [KP-111] | ~18 µM | – | – | – | – | non-toxic |
| O=[N+]([O-])c1ccc(Sc2nc(-c3cccnc3)nc3ccccc23)c(F)c1 [KP-76] | ~5 µM | – | – | – | – | non-toxic |
| COc1cc2c(Nc3ccc([N+](=O)[O-])cc3F)nc(-c3cccnc3)nc2c(OC)c1OC [KP-66] | ~5 µM | – | – | – | – | non-toxic |
| Fc1c(F)c(F)c(Nc2nc(-c3cccnc3)nc3ccccc23)c(F)c1F [KP-107] | ~7 µM | – | – | – | – | non-toxic |
| Fc1cc(Nc2cc(-c3cccnc3)nc3ccccc23)cc(F)c1F [OSR-205] | ~10 µM | – | – | – | – | non-toxic |
| CNc1ccc([N+](=O)[O-])cc1Nc1nc(-c2ccc(C(=O)c3ccccc3)cc2)nc2ccccc12 [OSR-77] | ~3 µM | ~7 µM | 2 µM | 7.1 µM | – | – |
| CN(C)c1nc(-c2cccnc2)nc2ccc(OS(C)(=O)=O)cc12 [OSR-302] | – | ~7 µM | – | – | – | – |
| CC(=O)OC[C@H]1O[C@@H](Sc2nc(-c3cccnc3)nc3ccccc23)[C@H](OC(C)=O)[C@@H](OC(C)=O)[C@@H]1OC(C)=O [KP-119] | > 25 µM | – | – | – | – | non-toxic |
| CC(C)Nc1nc(-c2cccnc2)nc2ccccc12 [OSR-295] | > 10 µM | – | – | – | – | non-toxic |
| C=Cc1ccc2nc(-c3cccnc3)nc(Nc3cc(F)c(F)c(F)c3)c2c1 [KP-130] | > 25 µM | – | – | – | – | non-toxic |
| CCOP(=O)(OCC)c1cc([N+](=O)[O-])ccc1Nc1nc(-c2cccnc2)nc2ccccc12 [KP-139] | > 25 µM | – | – | – | – | non-toxic |
| CCOC(=O)c1sc2nc(-c3cccnc3)nc(Nc3cc(F)c(F)c(F)c3)c2c1C [KP-199] | > 10 µM | – | – | – | – | non-toxic |
